“Also recorded” adds a separate entry of the source.
Assays:
[1] = In situ binding of MMPs to fibrotic liver sections; design: species or system human; settings: immunohistochemistry; 25 ng MMP, 30 min
Method: Human cirrhotic liver cryostat sections (5 μm) were air-dried and fixed in ice-cold acetone for 10 min. Tissue sections were rehydrated with PBS and incubated with 25 ng/50 μl of the respective proMMP and actMMP for 30 min or were left untreated. After thorough washing with PBS, antibodies specific for human MMP-9 (clone MAB911; R&D Systems, Minneapolis, MN, USA) and human MMP-2 (clone 75-7F7; Oncogene, Cambridge, MA, USA) were applied, and primary antibody binding was detected using the alkaline phosphatase-antialkaline phosphatase detection system (Dako, Hamburg, Germany). An irrelevant primary mouse antibody served as control. Nuclei were counterstained with Hemalaun, and slides were examined by standard light microscopy.

collagen type I (CI) = test: SPR binding of MMPs to immobilized CI, nonactivating buffer; design: species or system human
Method: (§1) Sensor chip preparations and SPR measurements were performed using a BiacoreX device and the Bia-evaluation software (version 3.2; Biacore, Uppsala, Sweden). The pepsin-resistant triple-helical part of human fibrillar CI (100 μg/ml) in 10 mM acetate coupling buffer, pH 4.8, was immobilized to a dextran matrix-sensor chip at a flow rate of 5 μl/min, resulting in 5,500 resonance units from CI covalently linked via its primary amino groups. The control flow cell was prepared using the coupling buffer without CI. Surfaces were activated and blocked as described previously. Immediately after thawing, pro- and actMMP-2 and pro- and actMMP-9 were diluted to 100 to 250 nM in MMP activity buffer or in PBS and 0.05% (vol/vol) Tween 20. For SPR measurements, flow rates were 10 μl/min at 25°C, and equilibrium was typically reached after 30 to 60 s. The effects of (GPO)10, GAP, (POG)5, (GPP)10 and P33-42 on MMP-2 and MMP-9 binding to CI and their enzymatic activity were determined by adding the binding competitors to the (pro- and act)MMP-2 and MMP-9 solution in 10- to 150-fold molar excesses. Effects independent of MMP-2 and MMP-9 activity were monitored in the presence of Ro 28-2653 (1 μM) during SPR analysis. The gelatinase inhibitor Ro 28-2653 was a generous gift from H.-W. Krell (Roche, Grenzach-Wyhlen, Germany). Sensor surfaces were regenerated with 10 mM glycine, pH 2.3, for 1 min between runs, and sensor chips were used up to 25 times. Kinetic parameters were analyzed using the 1:1 binding model with drifting baseline and subtraction of the control flow cell binding from sensorgrams obtained with immobilized CI. Binding constants (Kd) were calculated from the association (ka) and dissociation rates (kd) obtained from individual binding curves at different concentrations. Individual drifts of the resonance signal were fitted locally, and χ^2 values of 0.2% to 1.0% of the maximum resonance value were considered good fits.

proMMP-2 / CI = target: T1, proMMP-2 / CI (Homo sapiens, UniProt P08253); test: SPR, competition of proMMP-2 binding to CI, MMP activity buffer with Ro 28-2653
T1 construct: prodomain-containing proMMP-2 or proMMP-9; purchased Invitek
T1 sequence (P08253 30-660 limits assumed): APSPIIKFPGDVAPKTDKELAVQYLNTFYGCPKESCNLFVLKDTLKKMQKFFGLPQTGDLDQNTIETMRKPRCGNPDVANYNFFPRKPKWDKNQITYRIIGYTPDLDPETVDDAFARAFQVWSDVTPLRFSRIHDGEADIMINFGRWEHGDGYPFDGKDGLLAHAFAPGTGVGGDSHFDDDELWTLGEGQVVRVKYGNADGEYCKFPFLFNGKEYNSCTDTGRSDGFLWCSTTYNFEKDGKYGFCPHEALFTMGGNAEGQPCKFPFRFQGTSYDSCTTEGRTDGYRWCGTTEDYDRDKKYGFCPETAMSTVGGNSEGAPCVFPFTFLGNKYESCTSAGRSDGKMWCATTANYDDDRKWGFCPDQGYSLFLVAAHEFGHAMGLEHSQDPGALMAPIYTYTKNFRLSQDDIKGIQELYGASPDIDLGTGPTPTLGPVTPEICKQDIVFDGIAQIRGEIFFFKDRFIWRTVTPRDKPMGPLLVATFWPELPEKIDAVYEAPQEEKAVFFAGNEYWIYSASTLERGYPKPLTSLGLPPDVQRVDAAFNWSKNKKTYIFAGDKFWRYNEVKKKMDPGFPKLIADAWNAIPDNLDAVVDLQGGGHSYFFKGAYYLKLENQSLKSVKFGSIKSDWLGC
Method: as §1

ProMMP-2 [2] = test: DQ-gelatine degradation assay with MMP-2; assay type: biochemical, human; settings: for DQ-gelatine cleavage by proMMP-2: 5 h at 25°C
Method: (§2) Enzymatic activities of MMPs were studied spectrofluorimetrically by cleavage of fluorogenic substrates in MMP activity buffer within 2 to 5 h. For gelatinases 800 nM MCA-Pro-Leu-Gly-Leu-Dnp-Dap-Ala-Arg-NH2 (λex/em 328/393 nm; Bachem, Bubendorf, Switzerland) or 10 μg/ml DQ-gelatine were used, according to the method described by Knight et al. for collagenases 800 nM MCA-Pro-Cha-Gly-Nva-His-Ala-Dpa-NH2 (λex/em 280/360 nm; Anaspec, San José, CA, USA). In some experiments, proMMP-2 was fully activated in the presence of 1 mM APMA prior to the kinetic measurements. A quantity of 50 ng pro- or actMMP-2 alone or mixed with 10- to 150-fold molar excesses of (GPO)10, GAP, P33-42 or mixtures of (GPO)10 and P33-42, were added to CI-coated, BSA-coated (1 μg/well both) or uncoated wells containing 150 μl of the respective substrate solution. The peptide P33-42 was purchased from the Institute of Biochemistry (Humboldt-University, Berlin, Germany). The influence of CI on MMP-2 enzymatic activity against the quenched fluorescent substrate could be excluded. Background subtraction (measurement without MMPs) was applied to all curves. All experiments were performed with a fluorescence microplate reader (Molecular Devices, Sunnyvale, CA, USA) and black 96-well microtiter plates with a clear bottom (Greiner bio-one, Frickenhausen, Germany).

ProMMP-2 [3] = test: Substrate gel zymography of treated proMMP-2; assay type: biochemical, human; settings: 50 ng proMMP-2, 2-h incubation at room temperature
Method: Samples containing MMP-2 were diluted with zymogram sample buffer (Bio-Rad, Munich, Germany) and separated on homogeneous 10% SDS-PAGE gels containing 1 mg/ml (wt/vol) gelatine (Bio-Rad), washed with excess MMP activity buffer containing 2.5% (vol/vol) Triton X-100 to remove SDS, and incubated with MMP activity buffer for 24 h. Gels were stained with Coomassie Blue R-250. Gels showing proteolytic bands corresponding to proMMP-2 (72 kDa) or actMMP-2 (62 kDa) were scanned (Plustek, Norderstedt, Germany) and analyzed from inverted grayscale images.

[4] = target: Col-3 module of the CBD of MMP-2; settings: ref [7]; cited from earlier work
Excerpt: Finally, we asked how (GPO)10 competes CBD-mediated binding of proMMP-2 to fibrillar collagen and thereby modulates binding as well as enzymatic activity and activation. We made use of the P33-42 peptide derived from the prodomain of MMP-2. […] Even at high molar ...

MMP-13 = test: Effect of P33-42 on MMP-13; assay type: biochemical; settings: MMP without CBD; data not shown
Method: as §2

MMP-9 = test: Effect of P33-42 on MMP-9; assay type: biochemical; settings: MMP devoid of prodomain-CBD interaction; data not shown
Method: as §2

Row | binding to liver sections [1] | binding to CI relative to proMMP-9 (collagen type I (CI); nonactivating conditions) | Off rate (collagen type I (CI); without (GPO)10, MMP 100 nM, PBS, 0.05% Tween 20, 25°C, mean from at least three experiments) | Kd (collagen type I (CI); without (GPO)10, MMP 100 nM, PBS, 0.05% Tween 20, 25°C, mean ± SD, at least three experiments) | increase of Kd of proMMP-2 binding to CI (proMMP-2 / CI; high (up to 100-fold) molar excesses, 100-250 nM proMMP-2, 1 μM Ro 28-2653) | Substance | competition with proMMP-2 binding to CI (proMMP-2 / CI; SPR, MMP activity buffer with Ro 28-2653) | DQ-gelatine cleavage by proMMP-2 (ProMMP-2 [2]; 50- to 100-fold molar excesses) | DQ-gelatine cleavage by proMMP-2 (ProMMP-2 [2]; 150-fold molar excess) | proMMP-2 activation (ProMMP-2 [2]; P33-42 alone, even at high molar excesses) | effect on inhibitory effect of (GPO)10 on MMP-2 activity (ProMMP-2 [2]; equimolar mixture of (GPO)10 and P33-42, 150-fold molar excess) | effect on (GPO)10-mediated activation of proMMP-2 (ProMMP-2 [2]; equimolar mixtures of (GPO)10 and P33-42, 50- to 100-fold molar excesses) | substrate zymography, prodomain-free actMMP-2 band (ProMMP-2 [3]) | Kd [4] | effect on MMP (MMP-13) | effect on MMP (MMP-9)
1 | No significant binding | sevenfold less effectively | 0.76 s⁻¹ | 0.87 ± 0.39 µM | – | ActMMP-9: 86-kDa activated form of MMP-9 | – | – | – | – | – | – | – | – | – | –
2 | – | – | – | – | up to 50% | P33-42: MMP-2 prodomain-derived CBD-binding peptide (PIIKFPGDVA) | competed with proMMP-2 binding to CI; also recorded: only slightly inhibited proMMP-2 binding to CI | no activating effect but a slight inhibitory effect | more enhanced inhibitory effect | did not activate proMMP-2; also recorded: did not affect proMMP-2 activation | the inhibitory effect of (GPO)10 on MMP-2 activity was diminished | prevented (GPO)10-mediated proMMP-2 activation; also recorded: drastically diminished the activating effect of (GPO)10 on proMMP-2; also recorded: blocked (GPO)10-mediated proMMP-2 activation | did not occur | 1600 µM | no effects | no effects

Source: article PMC3024946, “Hydroxyproline-containing collagen analogs trigger the release and activation of collagen-sequestered proMMP-2 by competition with prodomain-derived peptide P33-42” (Fibrogenesis & Tissue Repair, 2011)
